Test results as given in patent US9908868B2, “Isoindolinone compounds as GPR119 modulators for the treatment of diabetes, obesity, dyslipidemia and related disorders” (SANOFI, priority 2014, dated 2018).

Molecular target: T1, human GPR119 (Homo sapiens, UniProt Q8TDV5)
T1 construct: expressed in transfected cells
T1 sequence (Q8TDV5 1-335): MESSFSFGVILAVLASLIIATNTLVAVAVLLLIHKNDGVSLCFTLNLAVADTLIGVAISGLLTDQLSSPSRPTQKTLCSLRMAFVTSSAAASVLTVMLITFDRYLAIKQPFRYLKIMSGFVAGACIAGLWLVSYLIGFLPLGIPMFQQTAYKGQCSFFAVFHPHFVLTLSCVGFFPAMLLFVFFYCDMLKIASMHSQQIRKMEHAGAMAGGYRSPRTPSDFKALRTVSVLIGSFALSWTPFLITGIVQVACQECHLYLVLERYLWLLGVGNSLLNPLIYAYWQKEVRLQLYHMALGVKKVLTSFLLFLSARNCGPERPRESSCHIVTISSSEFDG
Test: Functional cellular assay measuring GPR119-mediated cAMP release (HTRF) in HEK-293 cells stably expressing recombinant human GPR119
Assay type: cell-based
Conditions: cAMP response, cell line expressing human GPR119, 30 minutes at room temperature
Outline: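 HEK-293 cells stably expressing recombinant human GPR119, suspended at 400000 cells/mL in HBSS/20 mM HEPES/0.1% BSA/2 mM IBMX, exposed to compound for 30 minutes at room temperature. cAMP detected by HTRF (665/620 nm ratio) after 1 h with reagents in lysis buffer. EC50 taken as concentration giving 50% of maximal activation.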

| Compound | EC50 |
| --- | --- |
| C[S@+]([O-])CN1Cc2ncc(N3CC[C@@H](Oc4ccc(OCC(F)(F)F)nc4)C3=O)cc2C1=O [Example 1-68, 6-((S)-methanesulfinylmethyl)-3-{(R)-2-oxo-3-[6-(2,2,2-trifluoro-ethoxy)-pyridin-3-yloxy]-pyrrolidin-1-yl}-6,7-dihydro-pyrrolo[3,4-b]pyridin-5-one] | 143 nM |
| CC1c2ccc(N3CC[C@@H](Oc4ccc(OCC5CC5)nc4)C3=O)cc2C(=O)N1CC(=O)O (stereo partly drawn) [Example 1-14, 2-[5-[(3R)-3-[[6-(cyclopropylmethoxy)-3-pyridyl]oxy]-2-oxo-pyrrolidin-1-yl]-1-methyl-3-oxo-isoindolin-2-yl]acetic acid] | 4440 nM |
| CN(C)C(=O)C1NC(=O)c2cc(N3CC[C@@H](Oc4ccc(OCC5CC5)nc4)C3=O)ccc2N1C (single isomer, unassigned) [Example 1-41] | 2030 nM |
| O=C(CN1Cc2ccc(N3CC[C@@H](Oc4ccc(OCC(F)(F)F)nc4)C3=O)cc2C1=O)N1CCC(O)CC1 [Example 1-46, 2-[2-(4-hydroxy-1-piperidyl)-2-oxo-ethyl]-6-[(3R)-2-oxo-3-[[6-(2,2,2-trifluoroethoxy)-3-pyridyl]oxy]pyrrolidin-1-yl]isoindolin-1-one] | 184 nM |
| C[S+]([O-])CN1Cc2ccc(N3CC[C@@H](Oc4ccc(OCC5CC5)nc4)C3=O)cc2C1=O (stereo partly drawn) [Example 1-52, 6-[(3R)-3-[[6-(cyclopropylmethoxy)-3-pyridyl]oxy]-2-oxo-pyrrolidin-1-yl]-2-(methylsulfinylmethyl)isoindolin-1-one] | 124 nM |
| CN(C)C(=O)CN1Cc2ccc(N3CC[C@@H](Oc4ccc(OCCC5CC5)nc4)C3=O)cc2C1=O [Example 1-38, 2-[6-[(3R)-3-[[6-(2-cyclopropylethoxy)-3-pyridyl]oxy]-2-oxo-pyrrolidin-1-yl]-1-oxo-isoindolin-2-yl]-N,N-dimethyl-acetamide] | 35 nM |
| C[S+]([O-])CN1Cc2ccc(N3CC[C@@H](Oc4ccc(Oc5ccc(F)cc5)nc4)C3=O)cc2C1=O (stereo partly drawn) [Example 1-50, 6-[(3R)-3-[[6-(4-fluorophenoxy)-3-pyridyl]oxy]-2-oxo-pyrrolidin-1-yl]-2-(methylsulfinylmethyl)isoindolin-1-one] | 64 nM |
| CN(C)C(=O)CN1Cc2ncc(N3CC[C@@H](Oc4ccc(C(=O)CC5CC5)cc4)C3=O)cc2C1=O [Example 1-16, 2-[3-[(3R)-3-[4-(2-cyclopropylacetyl)phenoxy]-2-oxo-pyrrolidin-1-yl]-5-oxo-7H-pyrrolo[3,4-b]pyridin-6-yl]-N,N-dimethyl-acetamide] | 360 nM |
| C[S+]([O-])CN1Cc2c(F)cc(N3CC[C@@H](Oc4ccc(OCC5CC5)nc4)C3=O)cc2C1=O (stereo partly drawn) [Example 1-19, 6-[(3R)-3-[[6-(cyclopropylmethoxy)-3-pyridyl]oxy]-2-oxo-pyrrolidin-1-yl]-4-fluoro-2-(methylsulfinylmethyl)isoindolin-1-one] | 71 nM |
| CN(C)C(=O)CN1C(=O)c2cc(N3CC[C@@H](Oc4ccc(OCC5CC5)nc4)C3=O)ccc2C1(C)C [Example 1-12, 2-[5-[(3R)-3-[[6-(cyclopropylmethoxy)-3-pyridyl]oxy]-2-oxo-pyrrolidin-1-yl]-1,1-dimethyl-3-oxo-isoindolin-2-yl]-N,N-dimethyl-acetamide] | 29400 nM |
| CS(=O)(=O)CN1Cc2ncc(N3CC[C@@H](Oc4ccc(C(=O)C5CC5)cc4)C3=O)cc2C1=O [Example 1-62, 3-[(3R)-3-[4-(cyclopropanecarbonyl)phenoxy]-2-oxo-pyrrolidin-1-yl]-6-(methylsulfonylmethyl)-7H-pyrrolo[3,4-b]pyridin-5-one] | 139 nM |
| CN1Cc2c(F)cc(N3CC[C@@H](Oc4ccc(OCC5CC5)nc4)C3=O)cc2C1=O [Example 1-23, 6-[(3R)-3-[[6-(cyclopropylmethoxy)-3-pyridyl]oxy]-2-oxo-pyrrolidin-1-yl]-4-fluoro-2-methyl-isoindolin-1-one] | 695 nM |

Next, values leading:

| EC50 | Compound |
| --- | --- |
| 249 nM | O=C(CN1Cc2ccc(N3CC[C@@H](Oc4ccc(OCC5CC5)nc4)C3=O)cc2C1=O)NCCO [Example 4-05, 2-[6-[(3R)-3-[[6-(cyclopropylmethoxy)-3-pyridyl]oxy]-2-oxo-pyrrolidin-1-yl]-1-oxo-isoindolin-2-yl]-N-(2-hydroxyethyl)acetamide] |
| 144 nM | COCCNC(=O)CN1Cc2ccc(N3CC[C@@H](Oc4ccc(OCC5CC5)nc4)C3=O)cc2C1=O [Example 4-02, 2-[6-[(3R)-3-[[6-(cyclopropylmethoxy)-3-pyridyl]oxy]-2-oxo-pyrrolidin-1-yl]-1-oxo-isoindolin-2-yl]-N-(2-methoxyethyl)acetamide] |
| 2070 nM | CN(C)C(=O)CN1Cc2ccc(N3CC[C@@H](Oc4ccc(Cl)nc4)C3=O)cc2C1=O [Example 2-10, 2-[6-[(3R)-3-[(6-chloro-3-pyridyl)oxy]-2-oxo-pyrrolidin-1-yl]-1-oxo-isoindolin-2-yl]-N,N-dimethyl-acetamide] |
| 218 nM | O=C(CN1Cc2ccc(N3CC[C@@H](Oc4ccc(Oc5ccc(F)cc5)nc4)C3=O)cc2C1=O)N1CCC(O)CC1 [Example 4-11, 6-[(3R)-3-[[6-(4-fluorophenoxy)-3-pyridyl]oxy]-2-oxo-pyrrolidin-1-yl]-2-[2-(4-hydroxy-1-piperidyl)-2-oxo-ethyl]isoindolin-1-one] |
| 168 nM | O=C(CN1Cc2ccc(N3CC[C@@H](Oc4ccc(OCC5CC5)nc4)C3=O)cc2C1=O)NC1CC1 [Example 4-08, N-cyclopropyl-2-[6-[(3R)-3-[[6-(cyclopropylmethoxy)-3-pyridyl]oxy]-2-oxo-pyrrolidin-1-yl]-1-oxo-isoindolin-2-yl]acetamide] |
| 609 nM | O=C1c2cc(N3CC[C@@H](Oc4ccc(OCCC5CC5)nc4)C3=O)cc(F)c2CN1CCCO [Example 5-06, 6-[(3R)-3-[[6-(2-cyclopropylethoxy)-3-pyridyl]oxy]-2-oxo-pyrrolidin-1-yl]-4-fluoro-2-(3-hydroxypropyl)isoindolin-1-one] |
| 541 nM | O=C(CN1Cc2ccc(N3CC[C@@H](Oc4ccc(OCC5CC5)nc4)C3=O)cc2C1=O)NC[C@H](O)CO [Example 4-34, 2-[6-[(3R)-3-[[6-(cyclopropylmethoxy)-3-pyridyl]oxy]-2-oxo-pyrrolidin-1-yl]-1-oxo-isoindolin-2-yl]-N-[(2S)-2,3-dihydroxypropyl]acetamide] |
| 38 nM | CN(C)C(=O)CN1Cc2ccc(N3CC[C@@H](Oc4ccc(-c5ncc(F)s5)cc4)C3=O)cc2C1=O [Example 2-64, 2-[6-[(3R)-3-[4-(5-fluorothiazol-2-yl)phenoxy]-2-oxo-pyrrolidin-1-yl]-1-oxo-isoindolin-2-yl]-N,N-dimethyl-acetamide] |
| 130 nM | NC(=O)CN1Cc2ccc(N3CC[C@@H](Oc4ccc(C(=O)C5CC5)cc4)C3=O)cc2C1=O [Example 2-53, 2-[6-[(3R)-3-[4-(cyclopropanecarbonyl)phenoxy]-2-oxo-pyrrolidin-1-yl]-1-oxo-isoindolin-2-yl]acetamide] |
| 34 nM | NC(=O)CN1Cc2ccc(N3CC[C@@H](Oc4ccc(C(=O)CCC5CC5)nc4)C3=O)cc2C1=O [Example 2-56, 2-[6-[(3R)-3-[[6-(3-cyclopropylpropanoyl)-3-pyridyl]oxy]-2-oxo-pyrrolidin-1-yl]-1-oxo-isoindolin-2-yl]acetamide] |
| 6370 nM | CN(C)C(=O)CN1Cc2ccc(N3CC[C@@H](Oc4ccc(N5CCCC5)cc4)C3=O)cc2C1=O [Example 2-46, N,N-dimethyl-2-[1-oxo-6-[(3R)-2-oxo-3-(4-pyrrolidin-1-ylphenoxy)pyrrolidin-1-yl]isoindolin-2-yl]acetamide] |
| 64 nM | C=CCOc1ccc(O[C@@H]2CCN(c3cc(F)c4c(c3)C(=O)N(CC(=O)N(C)C)C4)C2=O)cn1 [Example 6-03, 2-[6-[(3R)-3-[(6-allyloxy-3-pyridyl)oxy]-2-oxo-pyrrolidin-1-yl]-4-fluoro-1-oxo-isoindolin-2-yl]-N,N-dimethyl-acetamide] |
| 107 nM | CNC(=O)CN1Cc2ccc(N3CC[C@@H](Oc4ccc(OCC5CC5)nc4)C3=O)cc2C1=O [Example 4-09, 2-[6-[(3R)-3-[[6-(cyclopropylmethoxy)-3-pyridyl]oxy]-2-oxo-pyrrolidin-1-yl]-1-oxo-isoindolin-2-yl]-N-methyl-acetamide] |
| 32800 nM | CN(C)C(=O)CN1Cc2ccc(N3CC[C@@H](Oc4ccc(-n5cnnc5)cc4)C3=O)cc2C1=O [Example 2-36, N,N-dimethyl-2-[1-oxo-6-[(3R)-2-oxo-3-[4-(1,2,4-triazol-4-yl)phenoxy]pyrrolidin-1-yl]isoindolin-2-yl]acetamide] |
| 46 nM | CN(C)C(=O)CN1Cc2c(F)cc(N3CC[C@@H](Oc4ccc(OCCC5CC5)nc4)C3=O)cc2C1=O [Example 4-27, 2-[6-[(3R)-3-[[6-(2-cyclopropylethoxy)-3-pyridyl]oxy]-2-oxo-pyrrolidin-1-yl]-4-fluoro-1-oxo-isoindolin-2-yl]-N,N-dimethyl-acetamide] |
| 66 nM | CN(C)C(=O)CN1Cc2ccc(N3CC[C@@H](Oc4ccc(C(=O)c5ccc(F)cc5)cc4)C3=O)cc2C1=O [Example 2-15, 2-[6-[(3R)-3-[4-(4-fluorobenzoyl)phenoxy]-2-oxo-pyrrolidin-1-yl]-1-oxo-isoindolin-2-yl]-N,N-dimethyl-acetamide] |
| 9360 nM | CN(C)C(=O)CN1Cc2ccc(N3CC[C@@H](Oc4ccc(F)nc4)C3=O)cc2C1=O [Example 2-17, 2-[6-[(3R)-3-[(6-fluoro-3-pyridyl)oxy]-2-oxo-pyrrolidin-1-yl]-1-oxo-isoindolin-2-yl]-N,N-dimethyl-acetamide] |
